Test system: iCell Cardiomyocytes^2
Assay: Cardiotoxicity assessment: cell-secreted BNP before and after drug addition (Human BNP ELISA Kit), 1060R 96-well plate
Type: cell-based
Conditions: Example 1; 1060R 96-well plate (surface free energy 34 mN/m), fibronectin coated; final doxorubicin 10^-6 M to 10^-14 M; 16 hours at 37° C.; n=3; FIG. 1
Source text: As a culture container a 96-well plate with 96 cylindrical wells each having a bottom area of 0.32 cm^2 was obtained by injection molding of ZEONOR® 1060R (ZEONOR is a registered trademark in Japan, other countries, or both) (ZEON Corporation, hydrogenated norbornene ring-opened polymer, hereinafter simply “1060R”) as an alicyclic structure-containing polymer. The culture container was sterilized with ethylene oxide gas (hereinafter, this culture container is referred to as “1060R 96-well plate”). The surface free energy at the inner bottom surface (cell-contacting surface, or culture surface) of each well of the 1060R 96-well plate was 34 mN/m. The surface free energy was measured using surface energy evaluation inks (Arcotest GmbH).
To each well of the […] 96-well plate was added 200 μL of 10 μg/mL human fibronectin (Corning Incorporated, product number: 356008) solution in sterile water and incubated at 37° C. for 2 hours to coat the inner bottom surface of each well with human fibronectin. Human fibronectin solution was removed from each well. […]
Supernatant samples before and after doxorubicin addition were measured for BNP level using Human BNP ELISA Kit (RayBiotech, product number: ELH-BNP).

COc1cccc2c1C(=O)c1c(O)c3c(c(O)c1C2=O)C[C@@](O)(C(=O)CO)C[C@@H]3O[C@H]1C[C@H](N)[C@H](O)[C@H](C)O1 [doxorubicin]
cell-secreted BNP concentration difference before and after addition of doxorubicin: BNP concentration difference increases with increasing doxorubicin concentration

— patent publication US20220034868A1, “CARDIOTOXICITY ASSESSMENT METHOD” (ZEON CORPORATION, priority 2018, published 2022)
